Reference: patent US11666554B2, “Use of a carbamate compound to prevent, alleviate or treat visceralgia or pain arising from visceral disease” (SK BIOPHARMACEUTICALS CO., LTD., priority 2017, dated 2023)
Marks after values point to notes of the source that are not given here.

Test system: Male ICR mice
Assay: Acetic acid-induced writhing test
Type: in vivo
Settings: for Number of writhing: mean ± standard error
Procedure: As a representative animal experimental model widely used to confirm the analgesic effect on visceral pain, an acetic acid-induced writhing test is used [T. J. Ness, Models of Visceral Nociception (1999) ILAR Journal 40: 119-128]. At this time, acetic acid is a chemical that is a stimulus used to induce pain, and when it is injected into the abdominal cavity of the mouse, characteristic writhing pain behaviors are induced in which due to the inflammatory pain caused in the peritoneum the mouse stretches both the forelimbs and the hind legs, and touches the abdomen to the floor or twists. However, when a drug having an analgesic effect, such as morphine, is injected into a mouse, the writhing pain behaviors of the mouse is reduced. As such, the degree of decreasing the writhing pain behaviors is measured to confirm the analgesic effect of the drug.
Male ICR mice (body weight: 24 to 30 g) were used in this experiment. The experimental animals were maintained at a light-and-darkness cycle of 12 hours, a temperature of 22 to 25° C., a relative humidity of 40 to 60%, and free access to water and food. For stabilization of animal behavior, the experimental animals were allowed to acclimate to the laboratory conditions for at least 1 hour before the test.
As a vehicle serving as the negative control, 30% PEG400 (v/v) was used, and Test Compound was dissolved in the vehicle and administered orally at doses of 3, 10 and 30 mg/kg. Morphine which is the positive control was dissolved in saline and administered subcutaneously at a dose of 10 mg/kg. The final dose of solution was 10 ml/kg.
After 1 hour of oral administration of the vehicle and Test Compound or 30 minutes after subcutaneous administration of morphine, the mice were gently restrained, and 0.8% (v/v) acetic acid solution was administered intraperitoneally to the abdomen of the mice. The mice were immediately returned to the observation box, and the number of writhing pain behaviors of the mice for 10 minutes was recorded.
The effect of the compound was expressed as the mean±standard error, and statistical significance was recognized when data differed by p<0.05 using one-way ANOVA and Dunnett's test.

Structure (SMILES) | Suppression rate compared to negative control (10 mg/kg s.c.) | Number of writhing (10 mg/kg s.c., 30 minutes before i.p. 0.8% acetic acid) | Suppression rate compared to negative control (10 mg/kg s.c., listed as morphine) | Suppression rate compared to negative control (3 mg/kg p.o.) | Number of writhing (3 mg/kg p.o., 1 hour before i.p. 0.8% acetic acid) | Suppression rate compared to negative control (10 mg/kg p.o.) | Number of writhing (10 mg/kg p.o., 1 hour before i.p. 0.8% acetic acid) | Suppression rate compared to negative control (30 mg/kg p.o.) | Number of writhing (30 mg/kg p.o., 1 hour before i.p. 0.8% acetic acid)
CN1CC[C@]23c4c5ccc(O)c4O[C@H]2[C@@H](O)C=C[C@H]3[C@H]1C5 [Morphine, reference compound] | 98.2% | 0.4 ± 0.3^1) writes/10 minutes | 98.2% | – | – | – | – | – | –
NC(=O)O[C@@H](Cn1ncnn1)c1ccccc1Cl [Test Compound, Carbamic acid (R)-1-(2-chlorophenyl)-2-tetrazol-2-yl-ethyl ester] | – | – | – | 25.8% | 17.3 ± 2.6 writes/10 minutes | 66.1% | 7.9 ± 2.4^1) writes/10 minutes | 100% | 0.0 ± 0.0^1) writes/10 minutes
